Measurements: US10383905B2, “Extract of Cynara ssp. and uses thereof” (ABOCA S.P.A. SOCIETA' AGRICOLA, priority 2013, dated 2019)

Legend:
MSTO211H and NCI-H2052 = assay: ATPlite vitality assay, extract in association with pemetrexed, MPM lines; type: cell-based, human; settings: MPM cells, 72 h
Protocol: Cell lines MSTO211H and NCI-H2052 were used to evaluate the effects of the association of extract of Cynara scolymus+anti-tumour drug.
(§1) The assay shown in FIG. 10 was performed using ATPlite™ assay (Perkin Elmer) in accordance with the producer's instructions.
(§2) A solution of water for injectable solutions and ethanol at a concentration of 1:1 was used in the same volumes used for the treatments.
(§3) pemetrexed (Alimta, Lilly) diluted in accordance with the producer's instructions.
(§4) The concentrations of the assayed compound are plotted on the abscissa, whereas the cell vitality expressed in percentage is plotted on the ordinate.

untransformed HMC cells = assay: ATPlite vitality assay, extract in association with pemetrexed, HMC; type: cell-based, human; settings: non-tumour HMC cells
Protocol: as §1, §2, §3, §4

STAT3 [1] = assay: Glutathionylation of STAT3; type: cell-based; settings: 12 microM and 25 μM
Protocol: STAT3 was immunoprecipitated by incubating the protein cell extract overnight with an anti-STAT3 antibody. The proteins obtained were separated by means of SDS-PAGE in non-reducing conditions and were transferred on PVDF membrane. The glutathionylated STAT3 was recognised using an anti-GSH antibody.

GSH = assay: Intracellular analyses of GSH; type: cell-based; settings: 12.5, 25, 50 μM
Protocol: The intracellular concentration of GSH was evaluated by means of a colorimetric method. The cell extract, deproteinised by means of 10% trichloroacetic acid, was treated with dithio nitrobenzene (DTNB), and the quantity of TNB, which is released following the reaction with GSH, was evaluated by analysing the absorbance at 412 nm.

STAT3 [2] = molecular target: T1, STAT3 (Homo sapiens, UniProt P40763); assay: EMSA of STAT3 binding to DNA in KARPAS cells; type: cell-based; design: endogenous in cells; settings: read-out: EC50 inhibition of the ability of STAT3 to bind to DNA
T1 sequence (P40763 whole entry): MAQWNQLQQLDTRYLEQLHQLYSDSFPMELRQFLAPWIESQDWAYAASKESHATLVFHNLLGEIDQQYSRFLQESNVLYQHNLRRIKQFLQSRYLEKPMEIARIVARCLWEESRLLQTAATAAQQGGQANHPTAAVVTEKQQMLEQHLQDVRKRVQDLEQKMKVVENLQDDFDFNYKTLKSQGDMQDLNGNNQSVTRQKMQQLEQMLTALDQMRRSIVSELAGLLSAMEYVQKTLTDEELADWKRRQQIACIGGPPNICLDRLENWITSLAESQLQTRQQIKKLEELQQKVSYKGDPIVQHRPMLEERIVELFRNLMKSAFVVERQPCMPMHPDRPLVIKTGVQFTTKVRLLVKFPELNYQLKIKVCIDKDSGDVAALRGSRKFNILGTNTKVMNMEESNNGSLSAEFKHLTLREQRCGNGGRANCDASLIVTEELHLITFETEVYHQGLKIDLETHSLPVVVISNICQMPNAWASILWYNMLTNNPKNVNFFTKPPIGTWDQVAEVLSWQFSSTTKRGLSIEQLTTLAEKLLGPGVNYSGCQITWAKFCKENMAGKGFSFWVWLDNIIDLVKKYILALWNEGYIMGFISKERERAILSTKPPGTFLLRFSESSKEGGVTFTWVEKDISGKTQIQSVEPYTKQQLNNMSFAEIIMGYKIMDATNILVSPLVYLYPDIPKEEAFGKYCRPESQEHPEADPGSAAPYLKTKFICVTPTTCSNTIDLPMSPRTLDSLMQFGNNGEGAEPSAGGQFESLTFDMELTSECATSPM

STAT3 [3] = molecular target: T1, STAT3; assay: Western Blot of STAT3 phosphorylation in DU-145 cells; type: cell-based; design: The cell line DU145 expresses pStat3 in a constitutive manner; endogenous in cells; host or cells: DU-145 (human prostate carcinoma, ATCC HTB-81); settings: read-out: EC50 inhibition of the phosphorylation of STAT3
Protocol: (§5) The cells were lysed in ice for 30 min in lysis buffer NP40 (50 mM Tris-HCl pH 7.4, 150 mM NaCl, 1% NP-40, 1 mM EGTA, 1 mM EDTA) complemented with inhibitors of protease and phosphatase (5 mM PMSF, 3 mM NaF, 1 mM DTT, 1 mM NaVO4). Equal amounts of total extracts of protein (30 μg) were broken down by means of denaturing electrophoresis (SDS-PAGE) in 8% polyacrylamide gel and transferred for 2 hours on nitrocellulose membrane. The membranes were blocked with a 5% solution of milk dissolved in TBS-Tween_20 0.05% for 1 hour and incubated with the specific primary antibodies. The following primary antibodies were used: anti-beta actin (A-2228, SIGMA), anti-pSTAT3 (Tyr-705) (sc8059, Santa Cruz) and anti-STAT3 (sc7179, Santa Cruz). The secondary antibodies were peroxidase-conjugated (Santa Cruz), and ECL reagents (Amersham, GE Healthcare. Piscataway, N.J., USA) were used for the chemiluminescence.
(§6) 2. The Extract of Cynara scolymus and Cynaropicrin Inhibit the Activation of STAT3 in DU-145 Cells and in KARPAS Cells:
(§7) 200 μg/ml of extract that contains 0.181% of cynaropricrin contain 1.2 μM of cynaropricrin.

[4] = tested on: human prostate tumour cell line DU145; assay: WST-1 vitality assay in association with chemotherapeutic agents; type: cell-based
Protocol: (§8) Cytotoxicity was assayed using the WST assay (WSTs=water soluble tetrazolium salts), and utilises the ability of mitochondrial dehydrogenases to separate the tetrazole ring from the yellow-coloured WST molecule (tetrazolium salt) to give an orange formazan salt. The amount of formazan produced following the treatment of the cells with the substances being tested is measured using spectrophotometry and is proportional to the number of living cells. WST-1 and in particular WST-8 (2-(2-methoxy-4-nitrophenyl)-3-(4-nitrophenyl)-5-(2,4-disulfophenyl)-2H-tetrazolium) are advantageous with respect to MTT because they reduce outside the cells, in combination with PMS as electron mediator, to produce water-soluble formazan.
The assays were carried out in parallel with variable doses of cynaropicrin in place of the extract to compare the efficacy of the extract and that of cynaropicrin.

STAT3 [5] = molecular target: T1, STAT3; assay: EMSA of STAT3 binding to DNA in DU-145 cells; type: cell-based; design: The cell line DU145 expresses pStat3 in a constitutive manner; endogenous in cells; host or cells: DU-145 (human prostate carcinoma, ATCC HTB-81); settings: read-out: EC50 inhibition of the ability of STAT3 to bind to DNA
[6] = tested on: confluent prostatic adenocarcinoma cell line DU-145; assay: WST-1 cell vitality assay, confluent DU-145; type: cell-based, human
Protocol: as §8
6.2 WST-1 assay on cell line DU145 at 24 and 48 hours with 0-100-200-300-400-500-600 μg/ml of extract of Cynara scolymus (cynaropicrin=1.361%), which inhibits, in a time-dependent and dose-dependent manner, the vitality of the DU-145 cells.
6.3 WST-1 assay on cell line DU145 at 24 and 48 hours with cynaropicrin 0-10-20-30-40-50-60 μM inhibits, in a dose-dependent and time-dependent manner, the vitality of DU-145 cells.

STAT3 [7] = assay: STAT3 phosphorylation after pre-treatment with glutathione ethylene ester; type: cell-based
STAT3 [8] = molecular target: T1, STAT3; assay: Western Blot of STAT3 phosphorylation in KARPAS cells; type: cell-based; design: The cell line DU145 expresses pStat3 in a constitutive manner; endogenous in cells; host or cells: DU-145 (human prostate carcinoma, ATCC HTB-81); settings: read-out: EC50 inhibition of the phosphorylation of STAT3
Protocol: as §5, §6, §7

SMILES	cell vitality, pemetrexed alone (MSTO211H and NCI-H2052)	cell vitality, pemetrexed alone (untransformed HMC cells)	glutathionylation of STAT3 (STAT3 [1])	intracellular concentration of GSH (GSH)	EC50 (STAT3 [2])	EC50 (STAT3 [3])	molarity of cynaropicrin needed to reduce cell vitality below 20%, relative to that present in the artichoke extract ([4]; DU145, with cisplatinum 15 μg/ml)	molarity of cynaropicrin needed to reduce cell vitality below 20%, relative to that present in the artichoke extract ([4]; DU145, with doxorubicin 2 μg/ml)	EC50 (STAT3 [5])	reduction of vitality ([6]; confluent DU-145, 50 μM for 48 hours)	cell vitality ([6]; confluent DU-145, cynaropicrin 0-70 μM, 24 or 48 hours)	effect of restoration of GSH on inhibition of STAT3 phosphorylation (STAT3 [7])	EC50 (STAT3 [8])
Nc1nc2[nH]cc(CCc3ccc(C(=O)N[C@@H](CCC(=O)O)C(=O)O)cc3)c2c(=O)[nH]1 [PMTX, pemetrexed]	cytotoxic for the MPM cells	highly toxic for the non-tumour cells											
C=C(CO)C(=O)O[C@H]1CC(=C)[C@@H]2C[C@H](O)C(=C)[C@@H]2[C@H]2OC(=O)C(=C)[C@@H]21 [cynaropicrin]			determines the glutathionylation of STAT3	time-dependent and dose-dependent reduction of the intracellular concentration of GSH	25 µM	25 µM	forty times greater	approximately twenty-five times greater	25 µM	approximately 90%	inhibits cell vitality in a time-dependent and dose-dependent manner	reverses the ability of cynaropicrin to inhibit the phosphorylation of STAT3	25 µM
